Data reported in US8722849B2, “Polypeptides” (Novo Nordisk A/S, priority 2011, dated 2014).
Values after ≈ are worked out from the molar mass of the structure shown. Where two headings read alike, the source gives them in different places. Starred links: 1 amine or outer side, 2 acyl side, 3 side chain; linkers in the order of their positions; H or OH if unused. Positions of bridges follow the written chain, without caps; N, C: chain ends. Residues, ends and D or L forms follow the SMILES beside them. *: point of attachment. C20 diacid = O=C(O)CCCCCCCCCCCCCCCCCCC(=O)*; γGlu = O=C(O)[C@H](CCC(=O)[*:2])N[*:1]

Columns and labels:
[1] = molecular target: T1, human amylin receptor (amylin 3(a) receptor: human calcitonin receptor + RAMP-3) (Homo sapiens, UniProt O60896+P30988); assay: Assay (II)a functional CRE-luciferase assay, human amylin receptor; format: cell-based; settings: Table 2; BHK amylin 3(a)-receptor/CRE-luc cells
T1 construct: expressed in transfected cells; host or cells: BHK570
T1 sequence (P30988 25-474): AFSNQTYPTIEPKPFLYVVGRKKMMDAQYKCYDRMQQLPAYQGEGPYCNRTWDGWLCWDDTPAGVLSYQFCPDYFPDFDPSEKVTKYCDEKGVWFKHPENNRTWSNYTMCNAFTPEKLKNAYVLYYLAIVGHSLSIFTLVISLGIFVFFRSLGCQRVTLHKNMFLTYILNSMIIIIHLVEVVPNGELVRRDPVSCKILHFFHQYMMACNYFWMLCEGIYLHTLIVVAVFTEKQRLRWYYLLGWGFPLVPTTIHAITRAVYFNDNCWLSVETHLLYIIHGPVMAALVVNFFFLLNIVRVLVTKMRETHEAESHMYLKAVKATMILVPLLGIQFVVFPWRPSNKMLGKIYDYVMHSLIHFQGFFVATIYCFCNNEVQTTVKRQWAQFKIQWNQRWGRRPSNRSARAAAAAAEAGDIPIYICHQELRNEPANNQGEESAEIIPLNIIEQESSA
T1 sequence (O60896 24-148 partner): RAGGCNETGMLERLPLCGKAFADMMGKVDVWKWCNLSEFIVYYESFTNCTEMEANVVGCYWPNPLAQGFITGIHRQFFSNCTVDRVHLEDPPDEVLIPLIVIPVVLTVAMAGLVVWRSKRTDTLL

[2] = molecular target: T2, human calcitonin receptor (Homo sapiens, UniProt P30988); assay: Assay (II)a functional CRE-luciferase assay, human calcitonin receptor; format: cell-based; settings: Table 7; human calcitonin (CTa) receptor
T2 construct: expressed in transfected cells; host or cells: BHK570
T2 sequence (P30988 25-474): T1 sequence (P30988 25-474)

[3] = Assay (III) ThT fibrillation assay for physical stability; format: physicochemical; settings: ThT fibrillation assay
Outline: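 Freshly prepared formulations, pH-adjusted, with 1 μM ThT; four or eight replicates incubated at 37 °C under 960 rpm orbital shaking. Fluorescence (ex 444/em 485 nm) read every 20 min; […]. Peptide concentration measured by RP-HPLC before and after the run.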

[4] = Assay (IV) determination of solubility; format: physicochemical
Outline: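 Polypeptide in water (~500 nmol/ml stock) was mixed 1:1 with 100 mM buffers from pH 3.0 to 8.0 (glycylglycine pH 3.0–5.0; bistrispropane pH 6.0–8.0). After 18 hours at room temperature, samples were centrifuged and the polypeptide remaining in solution was quantified by HPLC.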

[5] = bistrispropane buffer, pH 6, pH 6.0, read-out: Solubility pH 6.0
[6] = bistrispropane buffer, pH 7.5, pH 7.5, read-out: Solubility pH 7.5
[7] = bistrispropane buffer, pH 8, pH 8.0, read-out: Solubility pH 8.0
[8] = glycylglycine buffer, pH 3, pH 3.0, read-out: Solubility pH 3.0
[9] = glycylglycine buffer, pH 4, pH 4.0, 18 hours at room temperature, Table 2, read-out: Solubility pH 4.0
[10] = glycylglycine buffer, pH 4, pH 4.0, read-out: Solubility pH 4.0
[11] = glycylglycine buffer, pH 5, pH 5.0, read-out: Solubility pH 5.0

| EC50 [1] [nM] | EC50 [2] [nM] | ThT pH 4.0 lag time (h) [3] [h] | solubility at 18 h [4, 5] [µM] | solubility at 18 h [4, 6] [µM] | solubility at 18 h [4, 7] [µM] | solubility at 18 h [4, 8] [µM] | solubility at 18 h [4, 9] [µM] | solubility at 18 h [4, 10] [µM] | solubility at 18 h [4, 11] [µM] | solubility at 18 h ([4]; bistrispropane buffer, pH 6.5, pH 6.5, read-out: Solubility pH 6.5) [µM] | Structure (SMILES) |
| --- | --- | --- | --- | --- | --- | --- | --- | --- | --- | --- | --- |
| 0.286 | 0.801 | 1.3 | 17 (≈ 81 µg/mL) | 9 (≈ 42.9 µg/mL) | 66 (≈ 314 µg/mL) | > 200 | > 200 | > 200 | 194 (≈ 924 µg/mL) | – | CC[C@H](C)[C@H](NC(=O)[C@@H]1CCCN1C(=O)CNC(=O)[C@H](Cc1ccccc1)NC(=O)[C@H](CC(N)=O)NC(=O)[C@H](CC(N)=O)NC(=O)[C@H](CO)NC(=O)[C@H](CO)NC(=O)[C@H](Cc1c[nH]cn1)NC(=O)[C@H](Cc1c[nH]cn1)NC(=O)[C@H](CC(C)C)NC(=O)[C@H](Cc1ccccc1)NC(=O)[C@H](CCC(=O)O)NC(=O)[C@H](C)NC(=O)[C@H](CC(C)C)NC(=O)[C@H](CCCNC(=N)N)NC(=O)[C@H](CCC(N)=O)NC(=O)[C@@H](NC(=O)[C@H](C)NC(=O)[C@@H]1CSSC[C@H](NC(=O)[C@H](Cc2c[nH]cn2)NC(=O)[C@H](Cc2c[nH]cn2)NC(=O)[C@H](Cc2c[nH]cn2)NC(=O)CC[C@H](NC(=O)CCCCCCCCCCCCCCCCCCC(=O)O)C(=O)O)C(=O)N[C@@H](Cc2c[nH]cn2)C(=O)N[C@@H]([C@@H](C)O)C(=O)N[C@@H](C)C(=O)N[C@@H]([C@@H](C)O)C(=O)N1)[C@@H](C)O)C(=O)N[C@@H](CC(C)C)C(=O)N1CCC[C@H]1C(=O)N1CCC[C@H]1C(=O)N[C@H](C(=O)N[C@@H](CC(N)=O)C(=O)N[C@H](C(=O)NCC(=O)N[C@@H](CO)C(=O)N[C@@H](CC(N)=O)C(=O)N[C@H](C(=O)N[C@@H](Cc1ccc(O)cc1)C(N)=O)[C@@H](C)O)C(C)C)[C@@H](C)O [Example 35, N-alpha-[(S)-4-Carboxy-4-(19-carboxynonadecanoylamino)butyryl]-His-His-[His1,His3,Glu14,His17]-pramlintide] ({C20 diacid-γGlu}-HHHCHTATCATQRLAEFLHHSSNNFGPILPPTNVGSNTY-NH2; disulfide 4-9) |
| 0.167 | 0.191 | 1.3 | > 200 | 2 (≈ 9.56 µg/mL) | 60 (≈ 287 µg/mL) | > 200 | > 200 | > 200 | > 200 | 14 (≈ 66.9 µg/mL) | CC[C@H](C)[C@H](NC(=O)[C@@H]1CCCN1C(=O)CNC(=O)[C@H](Cc1ccccc1)NC(=O)[C@H](CC(N)=O)NC(=O)[C@H](CC(N)=O)NC(=O)[C@H](CO)NC(=O)[C@H](CO)NC(=O)[C@H](Cc1c[nH]cn1)NC(=O)[C@H](Cc1c[nH]cn1)NC(=O)[C@H](CC(C)C)NC(=O)[C@H](Cc1ccccc1)NC(=O)[C@H](CCC(=O)O)NC(=O)[C@H](C)NC(=O)[C@H](CC(C)C)NC(=O)[C@H](CCCNC(=N)N)NC(=O)[C@H](CCC(N)=O)NC(=O)[C@@H](NC(=O)[C@H](C)NC(=O)[C@@H]1CSSC[C@H](NC(=O)[C@H](Cc2c[nH]cn2)NC(=O)[C@H](Cc2c[nH]cn2)NC(=O)[C@H](Cc2c[nH]cn2)NC(=O)CC[C@H](NC(=O)CCCCCCCCCCCCCCCCCCC(=O)O)C(=O)O)C(=O)N[C@@H](CC(N)=O)C(=O)N[C@@H]([C@@H](C)O)C(=O)N[C@@H](C)C(=O)N[C@@H]([C@@H](C)O)C(=O)N1)[C@@H](C)O)C(=O)N[C@@H](CC(C)C)C(=O)N1CCC[C@H]1C(=O)N[C@@H](Cc1c[nH]cn1)C(=O)N[C@H](C(=O)N[C@@H](CC(N)=O)C(=O)N[C@H](C(=O)NCC(=O)N[C@@H](CO)C(=O)N[C@@H](CC(N)=O)C(=O)N[C@H](C(=O)N[C@@H](Cc1ccc(O)cc1)C(N)=O)[C@@H](C)O)C(C)C)[C@@H](C)O [Example 36, N-alpha-[(S)-4-Carboxy-4-(19-carboxynonadecanoylamino)butyryl]-His-His-[His1,Glu14,His17,His29]-pramlintide] ({C20 diacid-γGlu}-HHHCNTATCATQRLAEFLHHSSNNFGPILPHTNVGSNTY-NH2; disulfide 4-9 (inferred)) |
